The text below walks through data of US8420608B2, “Active substance combinations with insecticides and acaricide properties” (Bayer Cropscience AG, priority 2008, dated 2013).

Common to all, as to type: in vivo
The subject of one assay is Myzus persicae. Description: Myzus persicae test (spray on infested cabbage leaves). The text has this:
(§1) The expected action for a given combination of two active compounds can be calculated as follows, according to S. R. Colby, Weeds 15 (1967), 20-22:
(§2) If • X is the kill rate, expressed as a percentage of the untreated control, when employing active compound A at an application rate of m g/ha or in a concentration of m ppm, • Y is the kill rate, expressed as a percentage of the untreated control, when employing active compound B at an application rate of n g/ha or in a concentration of n ppm and • E is the kill rate, expressed as a percentage of the untreated control, when employing active compounds A and B at application rates of m and n g/ha or in a concentration of m and n ppm, then
(§3) If the actual insecticidal kill rate exceeds the calculated value, the kill of the combination is superadditive, i.e. a synergistic effect is present. In this case, the actually observed kill rate must exceed the value calculated using the above formula for the expected kill rate (E).
(§4) To produce a suitable preparation of active compound, 1 part by weight of active compound is mixed with the stated amounts of solvents and emulsifier, and the concentrate is diluted with emulsifier-containing water to the desired concentration.
Cabbage leaves (Brassica oleracea) which are heavily infested by the green peach aphid (Myzus persicae) are treated by spraying with the active compound preparation of the desired concentration.
After the desired period of time, the kill in % is determined. 100% means that all aphids have been killed; 0% means that none of the aphids have been killed. The kill rates determined are entered into Colby's formula.

In the next assay the test system is Phaedon cochleariae. Description: Phaedon cochleariae larvae test (sprayed cabbage leaves).
Text: as §1, §2, §3, §4
Cabbage leaves (Brassica oleracea) are treated by spraying with the active compound preparation of the desired concentration and are populated with larvae of the mustard beetle (Phaedon cochleariae) while the leaves are still moist.
After the desired period of time, the kill in % is determined. 100% means that all beetle larvae have been killed; 0% means that none of the beetle larvae have been killed. The kill rates determined are entered into Colby's formula.

The next assay has as its system Spodoptera frugiperda. Description: Spodoptera frugiperda larvae test (sprayed cabbage leaves).
Text: as §1, §2, §3, §4
Cabbage leaves (Brassica oleracea) are treated by spraying with the active compound preparation of the desired concentration and are populated with larvae of the army worm (Spodoptera frugiperda) while the leaves are still moist.
After the desired period of time, the kill in % is determined. 100% means that all caterpillars have been killed; 0% means that none of the caterpillars have been killed. The kill rates determined are entered into Colby's formula.

In a further assay the test system is Tetranychus urticae. Description: Tetranychus test (OP-resistant/spray treatment).
Text: as §1, §2, §3
To produce a suitable preparation of active compound, 1 part by weight of active compound is mixed with the stated amounts of solvents and emulsifier, and the concentrate is diluted with emulsifier-containing water to the desired concentration. […]
After the desired period of time, the activity in % is determined. […]

For the compound spinetoram, the “Kill in % after 6d” value was determined as 0% with Myzus persicae (0.16 g/ha), 0% in the assay on Myzus persicae (20 g/ha), 50% in the assay on Phaedon cochleariae (0.8 g/ha) and 83% with Spodoptera frugiperda (0.16 g/ha). In addition, the “Kill in % after 2d” value in the assay with Phaedon cochleariae (4 g/ha) is on record as 50%; in the assay with Tetranychus urticae (0.8 g/ha), 0%.

Regarding `Cc1cc(C)c(C2=C(OC(=O)CC(C)(C)C)C3(CCCC3)OC2=O)c(C)c1` [spiromesifen], the “Kill in % after 6d” value is 50% with Myzus persicae (100 g/ha), 0% with Phaedon cochleariae (4 g/ha) and 0% in the assay with Spodoptera frugiperda (0.8 g/ha). Besides, the “Kill in % after 2d” value in the assay on Tetranychus urticae (4 g/ha) is reported as 0%.

Consider `CCC(C)(C)C(=O)OC1=C(c2ccc(Cl)cc2Cl)C(=O)OC12CCCCC2` [spirodiclofen], for which the “Kill in % after 6d” value with Spodoptera frugiperda (0.8 g/ha) is 0%.

`CCOC(=O)OC1=C(c2cc(C)ccc2C)C(=O)N[C@]12CC[C@@H](OC)CC2` [spirotetramat]: the “Kill in % after 6d” value with Myzus persicae (0.8 g/ha) and with Spodoptera frugiperda (0.8 g/ha) was 0% throughout. In addition, in the assay on Phaedon cochleariae (20 g/ha), the “Kill in % after 2d” value was determined as 0%.
